This passage reports IC50 results from patent publication US8871934B2, “Fluorene compound and pharmaceutical use thereof” (Japan Tobacco Inc., priority 2008, dated 2014).

Read-outs that look alike come from different tables or passages of the source.

This test has as its target human PDHK2 (hPDHK2) (Homo sapiens (Human), UniProt Q15119). Description: Inhibitory action of PDHK activity in vitro (kinase reaction, residual PDH activity measured). The format is biochemical.
[1] abbreviates: PDHK inhibitory activity, class symbol of IC50.
Where [2] appears, read: read-out: PDHK inhibitory activity IC50.
Setting [3] is: class symbol of IC50, read-out: PDHK inhibitory activity.
Where [4] appears, read: read-out: PDHK inhibitory activity (class symbol).
Setting [5] is: PDHK inhibitory activity (class symbol).

Regarding `CC(C)NC(=O)Cn1cc(-c2cccc3c2-c2ccccc2C3(O)C(F)(F)F)cn1` (stereo not drawn) [compound 514], the IC50 by setting is: under setting [1], less than 100 nM; under setting [2], 58 nM.

For `CNC(=O)Cn1cc(-c2cc(F)cc3c2-c2ccccc2C3(O)C(F)(F)F)cn1` (stereo not drawn) [compound 515], the IC50 runs as follows: under setting [1], less than 100 nM; under setting [2], 38 nM.

In the case of `O=C(O)Cn1cc(-c2cc(Cl)c3c(c2)C(O)(C(F)(F)F)c2ccccc2-3)cn1` (stereo not drawn) [compound 516], the IC50 by setting is: under setting [1], 100 to 1000 nM; under setting [2], 110 nM.

Consider `O=C(O)CCn1cc(-c2cc(Cl)c3c(c2)C(O)(C(F)(F)F)c2ccccc2-3)cn1` (stereo not drawn) [compound 517], for which the IC50 reads like this: under setting [1], less than 100 nM; under setting [2], 57 nM.

Turning to `Cn1cc(-c2cc(C(N)=O)c3c(c2)C(O)(C(F)(F)F)c2ccccc2-3)cn1` (stereo not drawn) [compound 518], the IC50 reads like this: under setting [1], less than 100 nM; under setting [2], 54 nM.

For the molecule `Cc1cc(Cl)c2c(c1)C(O)(C(F)(F)F)c1ccccc1-2` (stereo not drawn) [compound 519], the IC50 reads like this: under setting [1], 100 to 1000 nM; under setting [2], 418 nM.

Turning to `NC(=O)CCn1cc(-c2cc(Cl)c3c(c2)C(O)(C(F)(F)F)c2ccccc2-3)cn1` (stereo not drawn) [compound 521], the IC50 is, setting by setting: under setting [1], less than 100 nM; under setting [2], 36 nM.

For the molecule `OC1(C(F)(F)F)c2ccccc2-c2c(-c3cnn(C45CC6CC(CC(C6)C4)C5)c3)cccc21` (stereo not drawn) [compound 522], the IC50 is less than 100 nM under setting [1] and 61 nM under setting [2].

For the molecule `CC(C)(C)n1cc(-c2cccc3c2-c2ccccc2C3(O)C(F)(F)F)cn1` (stereo not drawn) [compound 523], the IC50 is, setting by setting: under setting [1], less than 100 nM; under setting [2], 48 nM.

`CC(C)(C)Cn1cc(-c2cccc3c2-c2ccccc2C3(O)C(F)(F)F)cn1` (stereo not drawn) [compound 524]: the IC50 by setting is: under setting [1], less than 100 nM; under setting [2], 87 nM.

In the case of `OC1(C(F)(F)F)c2ccccc2-c2c(Cl)cc(F)cc21` (stereo not drawn) [compound 525], the IC50 under setting [1] fell in the range of 100 to 1000 nM and the IC50 under setting [2] came out at 677 nM.

For the molecule `CC(=O)NCCn1cc(-c2cccc3c2-c2ccccc2C3(O)C(F)(F)F)cn1` (stereo not drawn) [compound 527], the IC50 was less than 100 nM under setting [1] and 79 nM under setting [2].

As for `CC(C)n1cc(-c2cc(C(N)=O)c3c(c2)C(O)(C(F)(F)F)c2ccccc2-3)cn1` (stereo not drawn) [compound 528], the IC50 under setting [1] is less than 100 nM and the IC50 under setting [2] was 49 nM.

As to `CCn1cc(-c2cc(C(N)=O)c3c(c2)C(O)(C(F)(F)F)c2ccccc2-3)cn1` (stereo not drawn) [compound 530], the IC50 under setting [1] is less than 100 nM and the IC50 under setting [2] amounted to 43 nM.

Consider `CC(=O)N(C)CCn1cc(-c2cccc3c2-c2ccccc2C3(O)C(F)(F)F)cn1` (stereo not drawn) [compound 535], for which the IC50 by setting is: under setting [1], 100 to 1000 nM; under setting [2], 197 nM.

Consider `NC(=O)c1cc(-c2cnn(CCO)c2)cc2c1-c1ccccc1C2(O)C(F)(F)F` (stereo not drawn) [compound 536], for which the IC50 was less than 100 nM under setting [1] and 54 nM under setting [2].

As to `OC12CC3CC(C1)CC(Cn1cc(-c4cccc5c4-c4ccccc4C5(O)C(F)(F)F)cn1)(C3)C2` (stereo not drawn) [compound 547], the IC50 reads like this: under setting [1], less than 100 nM; under setting [2], 62 nM.

Take `Cc1nn(C)c(C)c1-c1ccc2c(c1)C(O)(C(F)(F)F)c1ccccc1-2` (stereo not drawn) [compound 555]: the IC50 is more than 1000 nM under setting [3] and more than 1000 nM under setting [2].

Take `O=C(c1cc(CO)c2c(c1)C(O)(C(F)(F)F)c1ccccc1-2)N1CCC1` (stereo not drawn) [compound 556]: the IC50 is, setting by setting: under setting [1], less than 100 nM; under setting [2], 53 nM.

With `Cn1cc(-c2cc(CO)cc3c2-c2ccccc2C3(O)C(F)(F)F)cn1` (stereo not drawn) [compound 557], the IC50 was less than 100 nM under setting [1] and 77 nM under setting [2].

Turning to `Cn1cc(-c2cc(N3CCC(C(=O)O)CC3)cc3c2-c2ccccc2C3(O)C(F)(F)F)cn1` (stereo not drawn) [compound 558], the IC50 by setting is: under setting [1], less than 100 nM; under setting [2], 81 nM.

Consider `OC1(C(F)(F)F)c2ccccc2-c2ccc(Cn3cccn3)cc21` (stereo not drawn) [compound 559], for which the IC50 under setting [3] was more than 1000 nM and the IC50 under setting [2] is more than 1000 nM.

As for `OC1(C(F)(F)F)c2ccccc2-c2ccc(-n3cccn3)cc21` (stereo not drawn) [compound 560], the IC50 was 100 to 1000 nM under setting [1] and 970 nM under setting [2].

Turning to `Cn1cc(-c2cnc3c(c2)C(O)(C(F)(F)F)c2ccccc2-3)cn1` (stereo not drawn) [compound 562], the IC50 under setting [1] is less than 100 nM and the IC50 under setting [2] was determined as 59 nM.

For the molecule `OCCn1cc(-c2cnc3c(c2)C(O)(C(F)(F)F)c2ccccc2-3)cn1` (stereo not drawn) [compound 563], the IC50 under setting [1] is less than 100 nM and the IC50 under setting [2] amounted to 63 nM.

With `Cn1cc(-c2cc(O)cc3c2-c2ccccc2C3(O)C(F)(F)F)cn1` (stereo not drawn) [compound 564], the IC50 was 100 to 1000 nM under setting [1] and 105 nM under setting [2].

As for `Cc1nn(C)c(C)c1-c1cccc2c1-c1ccccc1C2(O)C(F)(F)F` (stereo not drawn) [compound 567], the IC50 by setting is: under setting [3], more than 1000 nM; under setting [2], more than 1000 nM.

On to `O=C(O)CCn1cc(-c2cnc3c(c2)C(O)(C(F)(F)F)c2ccccc2-3)cn1` (stereo not drawn) [compound 568], for which the IC50 reads like this: under setting [1], less than 100 nM; under setting [2], 83 nM.

As to `Cn1cc(-c2cc(N3CCOCC3)cc3c2-c2ccccc2C3(O)C(F)(F)F)cn1` (stereo not drawn) [compound 569], the IC50 was less than 100 nM under setting [1] and 44 nM under setting [2].

In the case of `Cn1cc(-c2cc(CO)c3c(c2)C(O)(C(F)(F)F)c2ccccc2-3)cn1` (stereo not drawn) [compound 570], the IC50 runs as follows: under setting [1], 100 to 1000 nM; under setting [2], 110 nM.

Take `Cn1cc(-c2cc(OCC(O)CO)cc3c2-c2ccccc2C3(O)C(F)(F)F)cn1` (stereo not drawn) [compound 571]: the IC50 reads like this: under setting [1], less than 100 nM; under setting [2], 50 nM.

Turning to `O=C(c1cc(CO)c2c(c1)C(O)(C(F)(F)F)c1ccccc1-2)N1CCCC1` (stereo not drawn) [compound 572], the IC50 by setting is: under setting [1], 100 to 1000 nM; under setting [2], 109 nM.

In the case of `C#Cc1cc(-c2cnn(C)c2)cc2c1-c1ccccc1C2(O)C(F)(F)F` (stereo not drawn) [compound 578], the IC50 was less than 100 nM under setting [1] and 78 nM under setting [2].

Regarding `Cn1cc(-c2cc(-c3cnn(C)c3)c3c(c2)C(O)(C(F)(F)F)c2ccccc2-3)cn1` (stereo not drawn) [compound 579], the IC50 is, setting by setting: under setting [1], less than 100 nM; under setting [2], 19 nM.

As to `OCCn1cc(-c2cc(-c3cnn(CCO)c3)c3c(c2)C(O)(C(F)(F)F)c2ccccc2-3)cn1` (stereo not drawn) [compound 580], the IC50 is, setting by setting: under setting [1], less than 100 nM; under setting [2], 21 nM.

Turning to `O=C1CCCN1CCOc1cc(CO)c2c(c1)C(O)(C(F)(F)F)c1ccccc1-2` (stereo not drawn) [compound 583], the IC50 under setting [1] was less than 100 nM and the IC50 under setting [2] came out at 64 nM.

Turning to `Cc1cc(-c2cnn(CCO)c2)cc2c1-c1ccccc1C2(O)C(F)(F)F` (stereo not drawn) [compound 584], the IC50 was less than 100 nM under setting [1] and 77 nM under setting [2].

In the case of `CC(=O)c1cc(-c2cnn(CCO)c2)cc2c1-c1ccccc1C2(O)C(F)(F)F` (stereo not drawn) [compound 585], the IC50 is less than 100 nM under setting [1] and 26 nM under setting [2].

As to `CC(O)c1cc(-c2cnn(CCO)c2)cc2c1-c1ccccc1C2(O)C(F)(F)F` (stereo not drawn) [compound 586], the IC50 under setting [1] lay in the range of 100 to 1000 nM and the IC50 under setting [2] was determined as 513 nM.

Consider `CCn1cc(-c2cc(C(C)=O)c3c(c2)C(O)(C(F)(F)F)c2ccccc2-3)cn1` (stereo not drawn) [compound 587], for which the IC50 under setting [1] is less than 100 nM and the IC50 under setting [2] was found to be 21 nM.

Consider `OCCn1cc(-c2ccc3c(c2)C(O)(C(F)(F)F)c2cccc(CO)c2-3)cn1` (stereo not drawn) [compound 590], for which the IC50 under setting [1] was more than 1000 nM and the IC50 under setting [2] is 5920 nM.

Turning to `Cn1cc(-c2cc(C(C)(C)O)c3c(c2)C(O)(C(F)(F)F)c2ccccc2-3)cn1` (stereo not drawn) [compound 591], the IC50 reads like this: under setting [3], more than 1000 nM; under setting [2], more than 1000 nM.

For the molecule `CC(C)(O)c1cc(-c2cnn(CCO)c2)cc2c1-c1ccccc1C2(O)C(F)(F)F` (stereo not drawn) [compound 592], the IC50 under setting [3] was more than 1000 nM and the IC50 under setting [2] was more than 1000 nM.

Take `CC(C)n1cc(-c2ccc3c(c2)C(O)(C(F)(F)F)c2cccc(CO)c2-3)cn1` (stereo not drawn) [compound 593]: the IC50 is, setting by setting: under setting [3], more than 1000 nM; under setting [2], more than 1000 nM.

Consider `CC(=O)c1cc(-c2cnn(CCC(=O)O)c2)cc2c1-c1ccccc1C2(O)C(F)(F)F` (stereo not drawn) [compound 594], for which the IC50 runs as follows: under setting [1], less than 100 nM; under setting [2], 48 nM.

Take `CC(=O)c1cc(-c2cnn(C)c2)cc2c1-c1ccccc1C2(O)C(F)(F)F` (stereo not drawn) [compound 596]: the IC50 reads like this: under setting [1], less than 100 nM; under setting [2], 41 nM.

For the molecule `CCn1cc(-c2ccc3c(c2)C(O)(C(F)(F)F)c2cccc(CO)c2-3)cn1` (stereo not drawn) [compound 597], the IC50 by setting is: under setting [3], more than 1000 nM; under setting [2], more than 1000 nM.

As for `CC(O)c1cc(-c2cnn(C)c2)cc2c1-c1ccccc1C2(O)C(F)(F)F` (stereo not drawn) [compound 598], the IC50 is, setting by setting: under setting [1], 100 to 1000 nM; under setting [2], 653 nM.

For the molecule `CC(=O)c1cc(OCCN2CCCC2=O)cc2c1-c1ccccc1C2(O)C(F)(F)F` (stereo not drawn) [compound 599], the IC50 is, setting by setting: under setting [1], less than 100 nM; under setting [2], 33 nM.

`O=C(O)CCn1cc(-c2ccc3c(c2)C(O)(C(F)(F)F)c2cccc(CO)c2-3)cn1` (stereo not drawn) [compound 600]: the IC50 runs as follows: under setting [3], more than 1000 nM; under setting [2], more than 1000 nM.

Take `NC(=O)CCn1cc(-c2ccc3c(c2)C(O)(C(F)(F)F)c2cccc(CO)c2-3)cn1` (stereo not drawn) [compound 601]: the IC50 reads like this: under setting [4], more than 1000 nM; under setting [2], more than 1000 nM.

As to `CC(C)(C)n1cc(-c2ccc3c(c2)C(O)(C(F)(F)F)c2cccc(CO)c2-3)cn1` (stereo not drawn) [compound 602], the IC50 was more than 1000 nM under setting [4] and more than 1000 nM under setting [2].

Consider `Cn1cc(-c2cc(C#CCO)c3c(c2)C(O)(C(F)(F)F)c2ccccc2-3)cn1` (stereo not drawn) [compound 603], for which the IC50 was 100 to 1000 nM under setting [5] and 228 nM under setting [2].

With `O=C(O)Cn1cc(-c2ccc3c(c2)C(O)(C(F)(F)F)c2cccc(CO)c2-3)cn1` (stereo not drawn) [compound 608], the IC50 is, setting by setting: under setting [4], more than 1000 nM; under setting [2], more than 1000 nM.

For `NC(=O)Cn1cc(-c2ccc3c(c2)C(O)(C(F)(F)F)c2cccc(CO)c2-3)cn1` (stereo not drawn) [compound 609], the IC50 by setting is: under setting [4], more than 1000 nM; under setting [2], more than 1000 nM.

In the case of `OCCCCOc1cc(CO)c2c(c1)C(O)(C(F)(F)F)c1ccccc1-2` (stereo not drawn) [compound 611], the IC50 runs as follows: under setting [5], 100 to 1000 nM; under setting [2], 329 nM.

Regarding `NC(=O)c1cc(OCCN2CCCOC2=O)cc2c1-c1ccccc1C2(O)C(F)(F)F` (stereo not drawn) [compound 612], the IC50 was less than 100 nM under setting [5] and 47 nM under setting [2].
